# Values of other authors, collected in PMC6545338, “Novel chemical starting points for drug discovery in leishmaniasis and Chagas disease” (International Journal for Parasitology: Drugs and Drug …, 2019).
# Tested on: T. cruzi
# Design: method as in Morillo et al., 2017a
# Conditions: ref Morillo et al., 2017a; for Efficacy in the STOP-CHAGAS trial: patients
Structure (SMILES),Efficacy in the STOP-CHAGAS trial [%],Patients who had to permanently discontinue treatment due to side effects (benznidazole-treated group) [%]
CC[C@@H]([C@H](C)O)n1ncn(-c2ccc(N3CCN(c4ccc(OC[C@@H]5CO[C@@](Cn6cncn6)(c6ccc(F)cc6F)C5)cc4)CC3)cc2)c1=O [posaconazole],19,
O=C(Cn1ccnc1[N+](=O)[O-])NCc1ccccc1 [benznidazole],62,32
